Experimental findings from patent US20220089578A1, “COMPOUNDS AS GLP-1R AGONISTS” (Terns Pharmaceuticals, Inc., priority 2020, published 2022) are described below.

Each structure is given as a SMILES string.

Sequence of human GLP-1R (P43220 24-463): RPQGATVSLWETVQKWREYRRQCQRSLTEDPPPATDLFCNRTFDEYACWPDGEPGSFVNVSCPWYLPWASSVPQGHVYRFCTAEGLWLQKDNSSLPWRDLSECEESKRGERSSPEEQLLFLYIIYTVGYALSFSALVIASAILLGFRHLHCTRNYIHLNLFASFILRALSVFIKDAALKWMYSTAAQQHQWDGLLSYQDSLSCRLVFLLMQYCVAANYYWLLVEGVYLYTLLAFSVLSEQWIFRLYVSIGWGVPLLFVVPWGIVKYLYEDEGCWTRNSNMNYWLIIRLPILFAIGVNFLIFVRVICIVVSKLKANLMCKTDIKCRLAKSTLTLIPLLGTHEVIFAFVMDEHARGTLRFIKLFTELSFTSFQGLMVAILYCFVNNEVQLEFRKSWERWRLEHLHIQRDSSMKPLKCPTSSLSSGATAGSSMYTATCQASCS

One test addresses human GLP-1R (Homo sapiens, UniProt P43220). Kind of test: GLP-1R Cell Assay 1: cAMP Hunter CHO-K1 GLP1R Gs cell line, HitHunter cAMP assay. Type of test: cell-based. Particulars: Table 2; cAMP Hunter CHO-K1 GLP1R Gs cells; percent activity normalized to Exendin-4. An outline of the steps: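 CHO-K1 cells overexpressing wild-type human GLP-1R treated with 3-fold serially diluted compounds for 30-60 min at 37 °C. cAMP measured by EFC competitive luminescent immunoassay; activity normalised to Exendin-4, duplicate runs, EC50 by nonlinear regression.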
Background: Cyclic AMP is a second messenger, typically raised through Gs and lowered through Gi signalling.
By EC50 is commonly meant the concentration giving half of the maximal effect. Read a low EC50 as an effect from little substance. On to `N#Cc1ccc(COc2cccc(N3CCN(Cc4nc5ccc(C(=O)O)cc5n4C[C@@H]4CCO4)CC3)n2)nc1` [Compound 62, (S)-2-((4-(6-((5-cyanopyridin-2-yl)methoxy)pyridin-2-yl)piperazin-1-yl)methyl)-1-(oxetan-2-ylmethyl)-1H-benzo[d]imidazole-6-carboxylic acid], for which the EC50 is 0.86 nM. The same measure, in the same setting: the result for `O=C(O)c1ccc2nc(CN3CCN(c4cccc(OCC5CCC5)n4)CC3)n(C[C@@H]3CCO3)c2c1` [Compound 88, (S)-2-((4-(6-(cyclobutylmethoxy)pyridin-2-yl)piperazin-1-yl)methyl)-1-(oxetan-2-ylmethyl)-1H-benzo[d]imidazole-6-carboxylic acid] reads 239 nM.

As to `C[C@H]1c2ccc(C#N)cc2CCN1c1cccc(N2CCN(Cc3nc4ccc(C(=O)O)cc4n3C[C@@H]3CCO3)CC2)n1` [Compound 84], the midpoint of the response, the EC50, lay at 102 nM.

Molecule `Cn1cnc2ccc(COc3cccc(N4CCN(Cc5nc6ccc(C(=O)O)cc6n5C[C@@H]5CCO5)CC4)n3)cc21` [Compound 72, (S)-2-((4-(6-((1-methyl-1H-benzo[d]imidazol-6-yl)methoxy)pyridin-2-yl)piperazin-1-yl)methyl)-1-(oxetan-2-ylmethyl)-1H-benzo[d]imidazole-6-carboxylic acid] showed an EC50 of 4.6 nM. In turn, `N#Cc1cnc(COc2cccc(N3CCN(Cc4nc5ccc(C(=O)O)cc5n4C[C@@H]4CCO4)CC3)n2)nc1` [Compound 16, (S)-2-((4-(6-((5-cyanopyrimidin-2-yl)methoxy)pyridin-2-yl)piperazin-1-yl)methyl)-1-(oxetan-2-ylmethyl)-1H-benzo[d]imidazole-6-carboxylic acid] came in with an EC50 of 9.24 nM. Still for that read-out and setting: the same measure for `CS(=O)(=O)N1CCC(COc2cccc(N3CCN(Cc4nc5ccc(C(=O)O)cc5n4C[C@@H]4CCO4)CC3)n2)CC1` [Compound 52, (S)-2-((4-(6-((1-(methylsulfonyl)piperidin-4-yl)methoxy)pyridin-2-yl)piperazin-1-yl)methyl)-1-(oxetan-2-ylmethyl)-1H-benzo[d]imidazole-6-carboxylic acid]: over 500 nM; for `NC(=O)c1cnc(COc2cccc(N3CCN(Cc4nc5ccc(C(=O)O)cc5n4C[C@@H]4CCO4)CC3)n2)nc1` [Compound 81, (S)-2-((4-(6-((5-carbamoylpyrimidin-2-yl)methoxy)pyridin-2-yl)piperazin-1-yl)methyl)-1-(oxetan-2-ylmethyl)-1H-benzo[d]imidazole-6-carboxylic acid]: 207 nM; for `N#Cc1ccc2c(c1)CCN(c1cccc(N3CCN(Cc4nc5ccc(C(=O)O)cc5n4C[C@@H]4CCO4)CC3)n1)CC2` [Compound 2, (S)-2-((4-(6-(7-cyano-4,5-dihydro-1H-benzo[d]azepin-3(2H)-yl)pyridin-2-yl)piperazin-1-yl)methyl)-1-(oxetan-2-ylmethyl)-1H-benzo[d]imidazole-6-carboxylic acid]: over 500 nM.

`O=C(O)c1ccc2nc(CN3CCN(c4cccc(OCc5nc6cccc(F)c6s5)n4)CC3)n(C[C@@H]3CCO3)c2c1` [Compound 123, (S)-2-((4-(6-((7-fluorobenzo[d]thiazol-2-yl)methoxy)pyridin-2-yl)piperazin-1-yl)methyl)-1-(oxetan-2-ylmethyl)-1H-benzo[d]imidazole-6-carboxylic acid] had an EC50 of 1.07 nM. Still for that read-out and setting: the result for `C[C@@]1(c2cccc(OCc3ccc(C#N)cc3F)n2)CCN(Cc2nc3ccc(C(=O)O)cc3n2C[C@@H]2CCO2)C1` (single isomer, unassigned) [Compound 20-P1] reads over 500 nM. The same measure, in the same setting: the result for `N#Cc1ccc2sc(COc3cccc(N4CCN(Cc5nc6ccc(C(=O)O)cc6n5C[C@@H]5CCO5)CC4)n3)nc2c1` [Compound 129, (S)-2-((4-(6-((5-cyanobenzo[d]thiazol-2-yl)methoxy)pyridin-2-yl)piperazin-1-yl)methyl)-1-(oxetan-2-ylmethyl)-1H-benzo[d]imidazole-6-carboxylic acid] reads 2.6 nM.

In the case of `O=C(O)c1ccc2nc(CN3CCN(c4cccc(OCC5CC6(COC6)C5)n4)CC3)n(C[C@@H]3CCO3)c2c1` [Compound 43, (S)-2-((4-(6-((2-oxaspiro[3.3]heptan-6-yl)methoxy)pyridin-2-yl)piperazin-1-yl)methyl)-1-(oxetan-2-ylmethyl)-1H-benzo[d]imidazole-6-carboxylic acid], the EC50 was over 500 nM. Molecule `N#Cc1ccc(COc2cccc(C3CCN([C@H]4CCCCn5c4nc4ccc(C(=O)O)cc45)CC3)n2)c(F)c1` [Compound 91, (S)-6-(4-(6-((4-cyano-2-fluorobenzyl)oxy)pyridin-2-yl)piperidin-1-yl)-7,8,9,10-tetrahydro-6H-benzo[4,5]imidazo[1,2-a]azepine-2-carboxylic acid] registered a concentration for a half-maximal effect (EC50) of 17.3 nM. `N#Cc1ccc(COc2ccn(C3CCN(Cc4nc5ccc(C(=O)O)cc5n4C[C@@H]4CCO4)CC3)n2)c(F)c1` [Compound 92, (S)-2-((4-(3-((4-cyano-2-fluorobenzyl)oxy)-1H-pyrazol-1-yl)piperidin-1-yl)methyl)-1-(oxetan-2-ylmethyl)-1H-benzo[d]imidazole-6-carboxylic acid] registered an EC50 of 8.35 nM. In turn, `O=C(O)c1ccc2nc(CN3CCN(c4cccc(OCc5ccncc5)n4)CC3)n(C[C@@H]3CCO3)c2c1` [Compound 42, (S)-1-(oxetan-2-ylmethyl)-2-((4-(6-(pyridin-4-ylmethoxy)pyridin-2-yl)piperazin-1-yl)methyl)-1H-benzo[d]imidazole-6-carboxylic acid] returned an EC50 of 3.84 nM. Consider `N#Cc1cc(F)c2c(c1)CCN(c1cccc(N3CCN(Cc4nc5ccc(C(=O)O)cc5n4C[C@@H]4CCO4)CC3)n1)C2` [Compound 73, (S)-2-((4-(6-(6-cyano-8-fluoro-3,4-dihydroisoquinolin-2(1H)-yl)pyridin-2-yl)piperazin-1-yl)methyl)-1-(oxetan-2-ylmethyl)-1H-benzo[d]imidazole-6-carboxylic acid], for which the 50% effective concentration (EC50) is 1.43 nM. On to `O=C(O)c1ccc2nc(CN3CCN(c4cccc(OCc5nc6c(s5)CCCC6)n4)CC3)n(C[C@@H]3CCO3)c2c1` [Compound 131, (S)-1-(oxetan-2-ylmethyl)-2-((4-(6-((4,5,6,7-tetrahydrobenzo[d]thiazol-2-yl)methoxy)pyridin-2-yl)piperazin-1-yl)methyl)-1H-benzo[d]imidazole-6-carboxylic acid], for which the EC50 was determined as 1.71 nM. With `N#Cc1ccc(COc2cccc(C34CCN(Cc5nc6ccc(C(=O)O)cc6n5C[C@@H]5CCO5)CC3C4)n2)c(F)c1` (stereo partly drawn) [Compound 9, 2-((6-(6-((4-cyano-2-fluorobenzyl)oxy)pyridin-2-yl)-3-azabicyclo[4.1.0]heptan-3-yl)methyl)-1-((S)-oxetan-2-ylmethyl)-1H-benzo[d]imidazole-6-carboxylic acid], the EC50 was determined as 0.476 nM.

Staying with this test, now noted: Table 3; cAMP Hunter CHO-K1 GLP1R Gs cells; percent activity normalized to Exendin-4.
For the molecule `N#Cc1ccc(COc2cccc(N3CCN(Cc4nc5ccc(C(=O)O)cc5n4C[C@@H]4CCO4)CC3)c2)c(F)c1` [Compound 150, (S)-2-((4-(3-((4-cyano-2-fluorobenzyl)oxy)phenyl)piperazin-1-yl)methyl)-1-(oxetan-2-ylmethyl)-1H-benzo[d]imidazole-6-carboxylic acid], the EC50 amounted to 0.9 nM. Same read-out and setting: the same measure for `O=C(O)c1ccc2nc(CN3CCC(c4cccc5c4CC(=O)N(c4ccccc4)C5)CC3)n(C[C@@H]3CCO3)c2c1` [Compound 152, (S)-1-(oxetan-2-ylmethyl)-2-((4-(3-oxo-2-phenyl-1,2,3,4-tetrahydroisoquinolin-5-yl)piperidin-1-yl)methyl)-1H-benzo[d]imidazole-6-carboxylic acid]: over 500 nM; for `CCn1cncc1Cn1c(CN2CCC(c3cccc(OCc4nc5ccc(C#N)cc5s4)n3)CC2)nc2ccc(C(=O)O)cc21` [Compound 165, 2-((4-(6-((6-cyanobenzo[d]thiazol-2-yl)methoxy)pyridin-2-yl)piperidni-1-yl)methyl)-1-((1-ethyl-1H-imidazol-5-yl)methyl)-1H-benzo[d]imidazole-6-carboxylic acid]: 0.0254 nM. `CCn1cncc1Cn1c(CN2CC[C@@]3(c4cccc(N5CCc6cc(C#N)cc(F)c6C5)n4)C[C@H]3C2)nc2ccc(C(=O)O)cc21` [Compound 184-P1, 2-(((1R,6S)-6-(6-(6-cyano-8-fluoro-3,4-dihydroisoquinolin-2(1H)-yl)pyridin-2-yl)-3-azabicyclo[4.1.0]heptan-3-yl)methyl)-1-((1-ethyl-1H-imidazol-5-yl)methyl)-1H-benzo[d]imidazole-6-carboxylic acid] displayed an EC50 of 0.266 nM.

The molecule `CCn1ccnc1Cn1c(CN2CC[C@@]3(c4cccc(N5CCc6cc(C#N)cc(F)c6C5)n4)C[C@H]3C2)nc2ccc(C(=O)O)cc21` [Compound 163-P1, 2-(((1R,6S)-6-(6-(6-cyano-8-flluoro-3,4-dihydroisoquinolin-2(1H)-yl)pyridin-2-yl)-3-azabicyclo[4.1.0]heptan-3-yl)methyl)-1-((1-ethyl-1H-imidazol-2-yl)methyl)-1H-benzo[d]imidazole-6-carboxylic acid] displayed an EC50 of 0.266 nM. In the case of `CCn1ccnc1Cn1c(CN2CC[C@]3(c4cccc(N5CCc6cc(C#N)cc(F)c6C5)n4)C[C@@H]3C2)nc2ccc(C(=O)O)cc21` [Compound 163-P2, 2-(((1S,6R)-6-(6-(6-cyano-8-fluoro-3,4-dihydroisoquinolin-2(1H)-yl)pyridin-2-yl)-3-azabicyclo[4.1.0]heptan-3-yl)methyl)-1-((1-ethyl-1H-imidazol-2-yl)methyl)-1H-benzo[d]imidazole-6-carboxylic acid], a half-maximal response (EC50) required 0.414 nM. As to `N#Cc1ccc(COc2ncccc2[C@@]23CCN(Cc4nc5ccc(C(=O)O)cc5n4CC4CCO4)C[C@@H]2C3)c(F)c1` (single isomer, unassigned) [Compound 167, 2-((6-(2-((4-cyano-2-fluorobenzyl)oxy)pyridin-3-yl)-3-azabicyclo[4.1.0]heptan-3-yl)methyl)-1-(oxetan-2-ylmethyl)-1H-benzo[d]imidazole-6-carboxylic acid], the EC50 is 266 nM.
